Measurements from US20090036448A1, “PYRIMIDINE DERIVATIVES AND METHODS OF TREATMENT RELATED TO THE USE THEREOF” (TAISHO PHARMECUTICAL CO., LTD., priority 2004, published 2009).

target: MCH receptor (Homo sapiens, UniProt Q99705); assay: Receptor binding assay with Radiolabelled MCH Ligand; design: expressed in transfected cells; host or cells: 293 cells (human kidney, ATCC), transient transfection; crude membranes; conditions: class by percent of control at 10^-7 M or IC50
Method in brief: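 This was a filtration radioligand displacement assay: compounds, first tested at 1 and 0.1 μM and then over a range, inhibited binding of a labelled MCH ligand to transfected 293-cell membranes at room temperature for 60–120 min. Specific binding excluded a cold-MCH nonspecific signal. Ki was derived from IC50 via Cheng-Prusoff, using an independently measured KD.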

Sequence of MCH receptor (Q99705 whole entry): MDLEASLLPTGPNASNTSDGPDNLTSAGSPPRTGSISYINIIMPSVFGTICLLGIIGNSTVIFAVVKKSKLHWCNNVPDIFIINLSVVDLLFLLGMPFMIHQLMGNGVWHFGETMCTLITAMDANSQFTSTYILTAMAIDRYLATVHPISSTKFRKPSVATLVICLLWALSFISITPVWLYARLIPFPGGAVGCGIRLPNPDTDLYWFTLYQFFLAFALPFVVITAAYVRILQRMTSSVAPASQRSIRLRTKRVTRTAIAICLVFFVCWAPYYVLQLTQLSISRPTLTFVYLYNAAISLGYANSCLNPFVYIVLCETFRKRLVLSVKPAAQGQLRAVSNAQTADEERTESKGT

Compound	class
CCc1cccc(C)c1NC(=O)N[C@H]1CC[C@@H](Nc2cc(N(C)C)nc(C)n2)CC1 [compound 421]	3 (Class 3: The value of percent of control at 10^−7 M was more than 60% or the value of IC50 was more than 200 nM.)
Cc1nc(N[C@H]2CC[C@@H](NC(=O)Nc3c(C)cccc3C(C)(C)C)CC2)cc(N(C)C)n1 [compound 422]	2 (Class 2: The value of percent of control at 10^−7 M was from 40% to 60% or the value of IC50 was from 50 nM to 200 nM.)
Cc1nc(N[C@H]2CC[C@@H](NC(=O)Nc3c(Br)cc(C(C)C)cc3Br)CC2)cc(N(C)C)n1 [compound 423]	3 (Class 3: The value of percent of control at 10^−7 M was more than 60% or the value of IC50 was more than 200 nM.)
Cc1nc(N[C@H]2CC[C@@H](NC(=O)Nc3ccccc3OC(F)(F)F)CC2)cc(N(C)C)n1 [compound 424]	3 (Class 3: The value of percent of control at 10^−7 M was more than 60% or the value of IC50 was more than 200 nM.)
COc1cc(NC(=O)N[C@H]2CC[C@@H](Nc3cc(N(C)C)nc(C)n3)CC2)cc(OC)c1OC [compound 425, N-(cis-4-{[6-(dimethylamino)-2-methylpyrimidin-4-yl]amino}cyclohexyl)-N′-(3,4,5-trimethoxyphenyl)urea]	1 (Class 1: The value of percent of control at 10^−7 M was less than 40% or the value of IC50 was less than 50 nM.)
COc1cc(OC)c(NC(=O)N[C@H]2CC[C@@H](Nc3cc(N(C)C)nc(C)n3)CC2)cc1Cl [compound 426, N-(5-chloro-2,4-dimethoxyphenyl)-N′-(cis-4-{[6-(dimethylamino)-2-methylpyrimidin-4-yl]amino}cyclohexyl)urea]	2 (Class 2: The value of percent of control at 10^−7 M was from 40% to 60% or the value of IC50 was from 50 nM to 200 nM.)
COc1ccc(NC(=O)N[C@H]2CC[C@@H](Nc3cc(N(C)C)nc(C)n3)CC2)cc1OC1CCCC1 [compound 427]	3 (Class 3: The value of percent of control at 10^−7 M was more than 60% or the value of IC50 was more than 200 nM.)
CCOc1ccccc1NC(=O)N[C@H]1CC[C@@H](Nc2cc(N(C)C)nc(C)n2)CC1 [compound 428]	3 (Class 3: The value of percent of control at 10^−7 M was more than 60% or the value of IC50 was more than 200 nM.)
Cc1nc(N[C@H]2CC[C@@H](NC(=O)Nc3c(Br)cc(Br)cc3Br)CC2)cc(N(C)C)n1 [compound 429, N-(cis-4-{[6-(dimethylamino)-2-methylpyrimidin-4-yl]amino}cyclohexyl)-N′-(2,4,6-tribromophenyl)urea]	1 (Class 1: The value of percent of control at 10^−7 M was less than 40% or the value of IC50 was less than 50 nM.)
Cc1nc(N[C@H]2CC[C@@H](NC(=O)Nc3c(Cl)cc(Cl)cc3Cl)CC2)cc(N(C)C)n1 [compound 430]	3 (Class 3: The value of percent of control at 10^−7 M was more than 60% or the value of IC50 was more than 200 nM.)
Cc1nc(N[C@H]2CC[C@@H](NC(=O)Nc3c(F)cc(Br)cc3Br)CC2)cc(N(C)C)n1 [compound 431]	3 (Class 3: The value of percent of control at 10^−7 M was more than 60% or the value of IC50 was more than 200 nM.)
Cc1nc(N[C@H]2CC[C@@H](NC(=O)Nc3cccc4ccccc34)CC2)cc(N(C)C)n1 [compound 432]	3 (Class 3: The value of percent of control at 10^−7 M was more than 60% or the value of IC50 was more than 200 nM.)
Cc1nc(N[C@H]2CC[C@@H](NC(=O)Nc3c(C)noc3-c3ccccc3)CC2)cc(N(C)C)n1 [compound 433]	3 (Class 3: The value of percent of control at 10^−7 M was more than 60% or the value of IC50 was more than 200 nM.)
Cc1nc(N[C@H]2CC[C@@H](NC(=S)NCC(c3ccccc3)c3ccccc3)CC2)cc(N(C)C)n1 [compound 434]	3 (Class 3: The value of percent of control at 10^−7 M was more than 60% or the value of IC50 was more than 200 nM.)
Cc1cc(C)c(NC(=S)N[C@H]2CC[C@@H](Nc3cc(N(C)C)nc(C)n3)CC2)c(C)c1 [compound 437, N-(cis-4-{[6-(dimethylamino)-2-methylpyrimidin-4-yl]amino}cyclohexyl)-N′-mesitylthiourea]	2 (Class 2: The value of percent of control at 10^−7 M was from 40% to 60% or the value of IC50 was from 50 nM to 200 nM.)
CCc1cccc(CC)c1NC(=S)N[C@H]1CC[C@@H](Nc2cc(N(C)C)nc(C)n2)CC1 [compound 438, N-(2,6-diethylphenyl)-N′-(cis-4-{[6-(dimethylamino)-2-methylpyrimidin-4-yl]amino}cyclohexyl)thiourea]	2 (Class 2: The value of percent of control at 10^−7 M was from 40% to 60% or the value of IC50 was from 50 nM to 200 nM.)
Cc1nc(N[C@H]2CC[C@@H](NC(=S)Nc3ccc(N(C)C)c4ccccc34)CC2)cc(N(C)C)n1 [compound 440]	3 (Class 3: The value of percent of control at 10^−7 M was more than 60% or the value of IC50 was more than 200 nM.)
COc1cc(NC(=S)N[C@H]2CC[C@@H](Nc3cc(N(C)C)nc(C)n3)CC2)cc(OC)c1OC [compound 442, N-(cis-4-{[6-(dimethylamino)-2-methylpyrimidin-4-yl]amino}cyclohexyl)-N′-(3,4,5-trimethoxyphenyl)thiourea]	1 (Class 1: The value of percent of control at 10^−7 M was less than 40% or the value of IC50 was less than 50 nM.)
COc1ccc(NC(=S)N[C@H]2CC[C@@H](Nc3cc(N(C)C)nc(C)n3)CC2)c(OC)c1 [compound 444]	3 (Class 3: The value of percent of control at 10^−7 M was more than 60% or the value of IC50 was more than 200 nM.)

Compound	class
COc1ccc(NC(=S)N[C@H]2CC[C@@H](Nc3cc(N(C)C)nc(C)n3)CC2)cc1OC [compound 445]	3 (Class 3: The value of percent of control at 10^−7 M was more than 60% or the value of IC50 was more than 200 nM.)
CCOc1ccccc1NC(=S)N[C@H]1CC[C@@H](Nc2cc(N(C)C)nc(C)n2)CC1 [compound 446]	3 (Class 3: The value of percent of control at 10^−7 M was more than 60% or the value of IC50 was more than 200 nM.)
Cc1nc(N[C@H]2CC[C@@H](NC(=S)Nc3c(Br)cc(Br)cc3Br)CC2)cc(N(C)C)n1 [compound 447, N-(cis-4-{[6-(dimethylamino)-2-methylpyrimidin-4-yl]amino}cyclohexyl)-N′-(2,4,6-tribromophenyl)thiourea]	1 (Class 1: The value of percent of control at 10^−7 M was less than 40% or the value of IC50 was less than 50 nM.)
Cc1nc(N[C@H]2CC[C@@H](NC(=S)Nc3c(F)cc(Br)cc3Br)CC2)cc(N(C)C)n1 [compound 448]	3 (Class 3: The value of percent of control at 10^−7 M was more than 60% or the value of IC50 was more than 200 nM.)
Cc1nc(N[C@H]2CC[C@@H](NC(=S)Nc3ccc(I)cc3)CC2)cc(N(C)C)n1 [compound 449]	3 (Class 3: The value of percent of control at 10^−7 M was more than 60% or the value of IC50 was more than 200 nM.)
Cc1nc(N[C@H]2CC[C@@H](NC(=S)Nc3ccc(C#N)cc3)CC2)cc(N(C)C)n1 [compound 450]	3 (Class 3: The value of percent of control at 10^−7 M was more than 60% or the value of IC50 was more than 200 nM.)
COC(=O)c1scc(C)c1NC(=S)N[C@H]1CC[C@@H](Nc2cc(N(C)C)nc(C)n2)CC1 [compound 451]	3 (Class 3: The value of percent of control at 10^−7 M was more than 60% or the value of IC50 was more than 200 nM.)
Cc1nc(N[C@H]2CC[C@@H](NC(=O)OCC(C)(C)C)CC2)cc(N(C)C)n1 [compound 452]	3 (Class 3: The value of percent of control at 10^−7 M was more than 60% or the value of IC50 was more than 200 nM.)
COc1cc(COC(=O)N[C@H]2CC[C@@H](Nc3cc(N(C)C)nc(C)n3)CC2)c([N+](=O)[O-])cc1OC [compound 453]	3 (Class 3: The value of percent of control at 10^−7 M was more than 60% or the value of IC50 was more than 200 nM.)
Cc1nc(N[C@H]2CC[C@@H](NC(=O)Oc3cccc(C(F)(F)F)c3)CC2)cc(N(C)C)n1 [compound 454]	3 (Class 3: The value of percent of control at 10^−7 M was more than 60% or the value of IC50 was more than 200 nM.)
Cc1nc(N[C@H]2CC[C@@H](NC(=O)Oc3ccc(Br)cc3)CC2)cc(N(C)C)n1 [compound 455, 4-bromophenyl (cis-4-{[6-(dimethylamino)-2-methylpyrimidin-4-yl]amino}cyclohexyl)carbamate]	3 (Class 3: The value of percent of control at 10^−7 M was more than 60% or the value of IC50 was more than 200 nM.)
COc1ccccc1OC(=O)N[C@H]1CC[C@@H](Nc2cc(N(C)C)nc(C)n2)CC1 [compound 456]	3 (Class 3: The value of percent of control at 10^−7 M was more than 60% or the value of IC50 was more than 200 nM.)
COCCOC(=O)N[C@H]1CC[C@@H](Nc2cc(N(C)C)nc(C)n2)CC1 [compound 457]	3 (Class 3: The value of percent of control at 10^−7 M was more than 60% or the value of IC50 was more than 200 nM.)
CCCCCCCCOC(=O)N[C@H]1CC[C@@H](Nc2cc(N(C)C)nc(C)n2)CC1 [compound 458]	3 (Class 3: The value of percent of control at 10^−7 M was more than 60% or the value of IC50 was more than 200 nM.)
CCOC(=O)N[C@H]1CC[C@@H](Nc2cc(N(C)C)nc(C)n2)CC1 [compound 459]	3 (Class 3: The value of percent of control at 10^−7 M was more than 60% or the value of IC50 was more than 200 nM.)
Cc1nc(N[C@H]2CC[C@@H](NC(=O)OCc3ccc([N+](=O)[O-])cc3)CC2)cc(N(C)C)n1 [compound 460]	3 (Class 3: The value of percent of control at 10^−7 M was more than 60% or the value of IC50 was more than 200 nM.)
Cc1nc(N[C@H]2CC[C@@H](NC(=O)Oc3ccc4ccccc4c3)CC2)cc(N(C)C)n1 [compound 461]	3 (Class 3: The value of percent of control at 10^−7 M was more than 60% or the value of IC50 was more than 200 nM.)
C=CCOC(=O)N[C@H]1CC[C@@H](Nc2cc(N(C)C)nc(C)n2)CC1 [compound 462]	3 (Class 3: The value of percent of control at 10^−7 M was more than 60% or the value of IC50 was more than 200 nM.)
